For orientation: MIC means the lowest concentration that inhibits growth of the organism. By IC50 is commonly meant the concentration needed to halve the response being measured. Lower therefore signals higher potency.

Here are results for two molecules from US11286258B2, “Nature-inspired anticancer and antibacterial motifs and pharmaceutical composition thereof” (University of Sharjah, priority 2020, dated 2022).

The test system of assay [1] is MRSA-3 (clinical isolate). The assay can be described thus: MIC broth microdilution, MRSA-3. As to conditions: Staphylococcus aureus, MRSA; overnight incubation, Mueller-Hinton broth; read-out: MIC MRSA-3 (clinical isolate). It counts as cell-based, Staphylococcus aureus. The procedure:
(§1) Antibacterial activity: The compounds were tested for the minimum inhibitory concentrations (MIC), which is the lowest concentration of a chemical required to inhibit visible microbial growth following overnight incubation. MIC values were determined using broth microdilution method according to the Clinical and Laboratory Standards Institute guidelines (CLSI, 2015, M07-A10). Mueller-Hinton broth was used as a culture medium in all the experiments. Exponentially growing bacterial cells were prepared in Mueller-Hinton broth at a concentration of approximately 5×10^5 CFU/mL. Two-fold serial dilutions of the test compound (8 concentrations ranged between 100-0.78 μg/mL) were tested. […] In each experiment, solvent (DMSO) was used as a negative control, un-treated control (composing of bacteria in Mueller-Hinton broth) was used as a growth control, blank (culture media alone) was used as sterility control. The 96-well microplate with the test compounds was incubated overnight at 37° C. Turbidity in wells indicated bacterial growth.
(§2) The compounds were tested on six MDR Gram-positive bacteria including three clinical isolates of methicillin-resistant Staphylococcus aureus (MRSA-1, MRSA-2 and MRSA-3) and three reference MRSA strains (ATCC33591, ATCC33592 and ATCC700699). They were also tested on three MDR Gram-negative bacteria including New Delhi metallo-beta-lactamase (NDM-1) positive, carbapenem-resistant E. coli (ATCC BAA2469), extended-spectrum beta-lactamase (ESBL) producing, colistin-resistant E. coli (CDC-AR-0346) and carbapenem-resistant Acinetobacter baumannii (ATCC BAA1605), in addition to two non-MDR bacteria from the same species, namely E. coli (ATCC 25922) Acinetobacter baumannii (ATCC 19606).
Background: In broth dilution the organism is exposed to a series of concentrations in liquid medium.

Assay [2] relates to MRSA-2 (clinical isolate). Kind of assay: MIC broth microdilution, MRSA-2. Format: cell-based, Staphylococcus aureus. The conditions noted are these: Staphylococcus aureus, MRSA; overnight incubation, Mueller-Hinton broth; read-out: MIC MRSA-2 (clinical isolate). The procedure: as §1, §2
Assay [3] relates to E. coli ATCC BAA2469 (NDM-1 carbapenem-resistant). Kind of assay: MIC broth microdilution, E. coli ATCC BAA2469. Format: cell-based, Escherichia coli. The conditions noted are these: overnight incubation. On the procedure:
as §1, §2

The subject of assay [4] is A549. Kind of assay: MTT cell viability, A549. Format: cell-based. The conditions noted are these: Homo sapiens, lung cancer, 48 h of drug treatment, average of three experiments. The text has this:
(§3) Cell culture: In this study five different cancer cell lines were used, human lung carcinoma (A549), human breast adenoma (MCF-7), Cervical carcinoma (Hela), hepatocellular carcinoma (Hep3B), and colorectal adenocarcinoma (HCT-116). These cells were obtained from the European Collection of Cell Cultures (ECACC, UK). Hep3B cells were maintained in Dulbecco's Modified Eagle Medium (DMEM: Sigma-Aldrich), and the four other cell lines were maintained in Roswell Park Memorial Institute medium (RPMI, Sigma-Aldrich, St. Louis, Mo., USA), which was supplemented with 10% fetal bovine serum (FBS, Sigma-Aldrich) and 1% penicillin/streptomycin (Sigma-Aldrich). Cells were incubated all the time at 37° C. in a humidified atmosphere of 5% CO2. Cell viability studies: Cell viability was assessed using the MTT assay as described before. In brief, all cancer cell lines were seeded at a density of 4×10^4/well in 96 well flat-bottom plates. After 24 h from seeding, cells were treated with the synthesized compounds and left for an incubation period of 48 h. Upon reaching the indicated time point, the media was removed and replaced with 200 μL fresh media containing 0.5 mg/mL of MTT tetrazolium dye (Sigma-Aldrich). Cells were then incubated with MTT solution for 2 h at 37° C. The resultant formazan crystals were dissolved in 200 μl/well of DMSO and absorbance was measured at 570 nm using a microplate reader (Thermo Scientific).

Assay [5] relates to HCT-116. The assay can be described thus: MTT cell viability, HCT-116. Format: cell-based. The conditions noted are these: Homo sapiens, colon cancer, 48 h of drug treatment, average of three experiments.
From the text: as §3

For assay [6], the system named is MRSA-ATCC33591. The assay can be described thus: MIC broth microdilution, MRSA ATCC33591. It counts as cell-based, Staphylococcus aureus. As to conditions: Staphylococcus aureus; overnight incubation, Mueller-Hinton broth; read-out: MIC MRSA-ATCC33591. On the procedure: as §1, §2
Assay [7] relates to MRSA-ATCC33592. Kind of assay: MIC broth microdilution, MRSA ATCC33592. It counts as cell-based, Staphylococcus aureus. The conditions noted are these: Staphylococcus aureus; overnight incubation, Mueller-Hinton broth; read-out: MIC MRSA-ATCC33592. On the procedure:
as §1, §2

In assay [8] the test system is normal epithelial cells (HMEC). Kind of assay: Cell viability, normal epithelial cells. Format: cell-based. As to conditions: Homo sapiens, 48 h of drug treatment, average of three experiments. On the procedure: Cell viability studies: Cell viability was assessed using the MTT assay as described before. In brief, all cancer cell lines were seeded at a density of 4×10^4/well in 96 well flat-bottom plates. After 24 h from seeding, cells were treated with the synthesized compounds and left for an incubation period of 48 h. Upon reaching the indicated time point, the media was removed and replaced with 200 μL fresh media containing 0.5 mg/mL of MTT tetrazolium dye (Sigma-Aldrich). Cells were then incubated with MTT solution for 2 h at 37° C. The resultant formazan crystals were dissolved in 200 μl/well of DMSO and absorbance was measured at 570 nm using a microplate reader (Thermo Scientific).

Assay [9] concerns E. coli CDC-AR-0346 (ESBL, colistin resistant). The assay can be described thus: MIC broth microdilution, E. coli CDC-AR-0346. It counts as cell-based, Escherichia coli. As to conditions: Escherichia coli; MDR; overnight incubation. On the procedure: as §1, §2
In assay [10] the test system is MRSA-1 (clinical isolate). Kind of assay: MIC broth microdilution, MRSA-1. Format: cell-based, Staphylococcus aureus. As to conditions: Staphylococcus aureus, MRSA; overnight incubation, Mueller-Hinton broth; read-out: MIC MRSA-1 (clinical isolate). The procedure:
as §1, §2

In assay [11] the test system is HEP3B. The assay can be described thus: MTT cell viability, HEP3B. Format: cell-based. As to conditions: Homo sapiens, liver cancer, 48 h of drug treatment, average of three experiments.
From the text: as §3

Assay [12] deals with MRSA-ATCC700699 (VISA). Kind of assay: MIC broth microdilution, MRSA ATCC700699 (VISA). Format: cell-based, Staphylococcus aureus. As to conditions: Staphylococcus aureus; strain intermediately resistant to vancomycin; overnight incubation; read-out: MIC MRSA-ATCC700699 (VISA). On the procedure:
as §1, §2

The test system of assay [13] is E. coli ATCC25922. Kind of assay: MIC broth microdilution, E. coli ATCC25922. Format: cell-based, Escherichia coli. As to conditions: Escherichia coli, ATCC25922; not MDR; overnight incubation. The procedure: as §1, §2
Assay [14] has as its system HELA. The assay can be described thus: MTT cell viability, HELA. It counts as cell-based. The conditions noted are these: Homo sapiens, cervical cancer, 48 h of drug treatment, average of three experiments.
From the text: as §3

In assay [15] the test system is MCF-7. Kind of assay: MTT cell viability, MCF-7. It counts as cell-based. As to conditions: Homo sapiens, MCF7; breast cancer; 48 h of drug treatment; average of three experiments.
From the text: as §3

The subject of assay [16] is Acinetobacter baumannii ATCC 19606. Kind of assay: MIC broth microdilution, A. baumannii ATCC 19606. Format: cell-based. As to conditions: Acinetobacter baumannii, ATCC19606; not MDR; overnight incubation. On the procedure:
as §1, §2

In assay [17] the test system is Acinetobacter baumannii ATCC BAA1605 (carbapenem-resistant). Kind of assay: MIC broth microdilution, A. baumannii ATCC BAA1605. It counts as cell-based. The conditions noted are these: Acinetobacter baumannii, ATCCBAA1605, MDR; overnight incubation. On the procedure: as §1, §2

Converted amounts (≈) assume the structure as drawn.

Consider `Oc1ccc2c(c1)c1c3n2[C@@]2(C=C/C(=N\Nc4ccc(C(F)(F)F)cc4)CC2)CC[C@@H]3NCC1` [Compound 1i], for which the minimal inhibitory concentration (MIC) in [1] is 3.12 µg/mL (≈ 6.7 µM); in assay [2], 3.12 µg/mL (≈ 6.7 µM); in assay [3] (Escherichia coli, ATCCBAA2469, MDR), 6.25 to 12.5 µg/mL (≈ 13.4 to 26.8 µM); in assay [6] it was 3.12 µg/mL (≈ 6.7 µM); in assay [7], 3.12 µg/mL (≈ 6.7 µM); in assay [9], 25 µg/mL (≈ 53.6 µM). For the same molecule, the MIC came out at 1.56 µg/mL (≈ 3.34 µM) in [10]; 1.56 µg/mL (≈ 3.34 µM) in assay [12]; 12.5 µg/mL (≈ 26.8 µM) in assay [13]; 6.25 µg/mL (≈ 13.4 µM) in assay [16]; 12.5 µg/mL (≈ 26.8 µM) in assay [17]. Moreover, the “MIC E. coli ATCC BAA2469 (NDM-1 carbapenem-resistant)” value in [3] (MDR) turned out to be 12.5 µg/mL (≈ 26.8 µM). Further, the IC50 in [4] was found to be 8.607 ± 0.02 µM; in assay [5] it was 5.177 ± 0.02 µM; in assay [8] it was 12.7 ± 0.05 µM; in [11] it was 5.132 ± 0.04 µM; in [14], 4.08 ± 0.12 µM; in [15] it was 5.61 ± 0.08 µM.
With `COc1ccc2c3c4n(c2c1)[C@@]1(C=C/C(=N\Nc2ccc(C(F)(F)F)cc2)CC1)CC[C@@H]4NCC3` [Compound 1j], the MIC in assay [1] was 3.12 µg/mL (≈ 6.5 µM); in [2] it was 3.12 µg/mL (≈ 6.5 µM); in assay [6], 3.12 µg/mL (≈ 6.5 µM); in assay [7], 3.12 µg/mL (≈ 6.5 µM); in assay [10], 1.56 µg/mL (≈ 3.25 µM); in assay [12], 3.12 µg/mL (≈ 6.5 µM). Also, the IC50 amounted to 5.61 ± 0.12 µM in assay [4]; 2.3 ± 0.04 µM in [5]; 10.77 ± 0.05 µM in assay [8]; 2.88 ± 0.14 µM in [11]; 4.601 ± 0.03 µM in [14]; 3 ± 2.4 µM in [15].
